Measured values as given in ChEMBL document CHEMBL1240392 (Antimicrob Agents Chemother, 2010).
Values after ≈ are worked out from the molar mass of the structure shown. Active and inactive are the calls of the source. The calls are words filed in the database; no cut-off is given here.

Experiments:
[1] = Ratio of AUC to MIC for Acinetobacter baumannii 1327 in pharmacokinetic-pharmacodynamic New Zealand rabbit meningitis model at 30 mg/kg, im; assay type: functional; conditions: route intramuscular
Acinetobacter baumannii [2] = experiment: Antibacterial activity against Acinetobacter baumannii infected in C57BL/6 mouse model assessed as survival rate at total dose of 240 mg/kg/day, im administered as four divided doses measured after 72 hrs post last dose relative to control; assay type: functional; conditions: route intramuscular
[3] = Cmax in C57BL/6 mouse pneumonia model at 60 mg/kg, im; assay type: ADME, organism-based; design: dose 60 mg/kg, route intramuscular; conditions: in vivo
[4] = Cmax in New Zealand rabbit meningitis model at 30 mg/kg, im; assay type: ADME, organism-based, Oryctolagus cuniculus; design: dose 30 mg/kg, route intramuscular; conditions: in vivo
[5] = AUC in New Zealand rabbit meningitis model at 30 mg/kg, im; assay type: ADME, organism-based, Oryctolagus cuniculus; design: dose 30 mg/kg, route intramuscular; conditions: in vivo
Acinetobacter baumannii [6] = experiment: Antimicrobial activity against Acinetobacter baumannii 506 after 24 hrs by time-kill assay; assay type: functional, organism-based
Acinetobacter baumannii [7] = experiment: Antimicrobial activity against Acinetobacter baumannii 506; assay type: functional
Acinetobacter baumannii [8] = experiment: Antimicrobial activity against Acinetobacter baumannii infected in C57BL/6 mouse model assessed as reduction in bacterial count in blood at total dose of 240 mg/kg/day, im administered as four divided doses after 72 hrs; assay type: functional; design: scale not given: the % may be the effect or the level left; conditions: route intramuscular
Acinetobacter baumannii [9] = experiment: Antimicrobial activity against Acinetobacter baumannii 1417 after 24 hrs by time-kill assay; assay type: functional, organism-based
Acinetobacter baumannii [10] = experiment: Antimicrobial activity against Acinetobacter baumannii 940 after 24 hrs by time-kill assay; assay type: functional, organism-based
Acinetobacter baumannii [11] = experiment: Antimicrobial activity against Acinetobacter baumannii 1417; assay type: functional
[12] = T>MIC in Acinetobacter baumannii infected C57BL/6 mouse pneumonia model at 60 mg/kg, im; assay type: functional; conditions: route intramuscular
[13] = AUC in C57BL/6 mouse pneumonia model at 60 mg/kg, im; assay type: ADME, organism-based; design: dose 60 mg/kg, route intramuscular; conditions: in vivo
[14] = Half life in C57BL/6 mouse pneumonia model at 60 mg/kg, im; assay type: ADME, organism-based; design: dose 60 mg/kg, route intramuscular; conditions: in vivo
[15] = T>MIC in Acinetobacter baumannii infected New Zealand rabbit meningitis model at 30 mg/kg, im; assay type: functional; conditions: route intramuscular
Acinetobacter baumannii [16] = experiment: Antimicrobial activity against Acinetobacter baumannii infected in C57BL/6 mouse model assessed as reduction in bacterial count per gram of lung at total dose of 240 mg/kg/day, im administered as four divided doses after 72 hrs (RVb = 10.6+/-0.27); assay type: functional, organism-based
Acinetobacter baumannii [17] = experiment: Antimicrobial activity against Acinetobacter baumannii 1327 after 24 hrs by time-kill assay; assay type: functional, organism-based
[18] = Half life in New Zealand rabbit meningitis model at 30 mg/kg, im; assay type: ADME, organism-based, Oryctolagus cuniculus; design: dose 30 mg/kg, route intramuscular; conditions: in vivo
Acinetobacter baumannii [19] = experiment: Antimicrobial activity against Acinetobacter baumannii 940; assay type: functional
[20] = Ratio of Cmax to MIC for Acinetobacter baumannii 1327 in pharmacokinetic-pharmacodynamic C57BL/6 mouse pneumonia model at 60 mg/kg, im; assay type: functional; conditions: route intramuscular
[21] = Ratio of Cmax to MIC for Acinetobacter baumannii 1327 in pharmacokinetic-pharmacodynamic New Zealand rabbit meningitis model at 30 mg/kg, im; assay type: functional; conditions: route intramuscular
[22] = Ratio of AUC to MIC for Acinetobacter baumannii 1327 in pharmacokinetic-pharmacodynamic C57BL/6 mouse pneumonia model at 60 mg/kg, im; assay type: functional; conditions: route intramuscular
Acinetobacter baumannii [23] = experiment: Antimicrobial activity against Acinetobacter baumannii 1327; assay type: functional
Oryctolagus cuniculus [24] = experiment: AUC in New Zealand rabbit meningitis model at 12 mg/kg, im; assay type: ADME, organism-based; design: dose 12 mg/kg, route intramuscular; conditions: in vivo
Mus musculus [25] = experiment: AUC in C57BL/6 mouse pneumonia model at 20 mg/kg, im; assay type: ADME, organism-based; design: dose 20 mg/kg, route intramuscular; conditions: in vivo
Oryctolagus cuniculus [26] = experiment: Cmax in New Zealand rabbit meningitis model at 12 mg/kg, im; assay type: ADME, organism-based; design: dose 12 mg/kg, route intramuscular; conditions: in vivo
Oryctolagus cuniculus [27] = experiment: Half life in New Zealand rabbit meningitis model at 12 mg/kg, im; assay type: ADME, organism-based; design: dose 12 mg/kg, route intramuscular; conditions: in vivo
Homo sapiens = species: Homo sapiens; experiment: AUC in human; assay type: ADME, organism-based, Plasma; conditions: in vivo
Mus musculus [28] = experiment: Cmax in C57BL/6 mouse pneumonia model at 20 mg/kg, im; assay type: ADME, organism-based; design: dose 20 mg/kg, route intramuscular; conditions: in vivo
Mus musculus [29] = experiment: Half life in C57BL/6 mouse pneumonia model at 20 mg/kg, im; assay type: ADME, organism-based; design: dose 20 mg/kg, route intramuscular; conditions: in vivo
[30] = Ratio of Cmax to MIC for Acinetobacter baumannii 1327 in pharmacokinetic-pharmacodynamic New Zealand rabbit meningitis model at 12 mg/kg, im; assay type: functional, organism-based; design: dose 12 mg/kg
[31] = T>MIC in Acinetobacter baumannii infected C57BL/6 mouse pneumonia model at 20 mg/kg, im; assay type: functional, organism-based; design: dose 20 mg/kg
Acinetobacter baumannii [32] = experiment: Antimicrobial activity against Acinetobacter baumannii infected in C57BL/6 mouse model assessed as reduction in bacterial count in blood at total dose of 60 mg/kg/day, im administered as four divided doses after 72 hrs; assay type: functional, organism-based; design: scale not given: the % may be the effect or the level left
Oryctolagus cuniculus [33] = experiment: Antiinflammatory activity in Acinetobacter baumannii 1327-infected New Zealand rabbit meningitis model assessed as in WBC count at 12 mg/kg, im after 6 hrs (RVb = 1 cells/ul); assay type: functional, organism-based; design: dose 12 mg/kg
[34] = Ratio of AUC to MIC for Acinetobacter baumannii 1327 in pharmacokinetic-pharmacodynamic C57BL/6 mouse pneumonia model at 12 mg/kg, im; assay type: functional, organism-based; design: dose 12 mg/kg
Oryctolagus cuniculus [35] = experiment: Antiinflammatory activity in Acinetobacter baumannii 1327-infected New Zealand rabbit meningitis model assessed as brain edema at 12 mg/kg, im; assay type: functional, organism-based; design: dose 12 mg/kg
Acinetobacter baumannii [36] = experiment: Antibacterial activity against Acinetobacter baumannii infected in C57BL/6 mouse model assessed as survival rate at total dose of 60 mg/kg/day, im administered as four divided doses measured after 72 hrs post last dose relative to control; assay type: functional, organism-based
[37] = T>MIC in Acinetobacter baumannii infected New Zealand rabbit meningitis model at 12 mg/kg, im; assay type: functional, organism-based; design: dose 12 mg/kg
Acinetobacter baumannii [38] = experiment: Antimicrobial activity against Acinetobacter baumannii; assay type: functional, organism-based
Acinetobacter baumannii [39] = experiment: Antibacterial activity against Acinetobacter baumannii 1327 infected in New Zealand rabbit meningitis model assessed as reduction in bacterial count in CSF at 25 mg/kg, im measured after 6 hrs of last dose (RVb = 5.5); assay type: functional, organism-based; design: dose 25 mg/kg
Acinetobacter baumannii [40] = experiment: Antibacterial activity against Acinetobacter baumannii 1327 infected in New Zealand rabbit meningitis model assessed as reduction in bacterial count in CSF at 25 mg/kg, im measured after 2 hrs of last dose (RVb = […]); assay type: functional, organism-based; design: dose 25 mg/kg
[41] = Ratio of Cmax to MIC for Acinetobacter baumannii 1327 in pharmacokinetic-pharmacodynamic C57BL/6 mouse pneumonia model at 20 mg/kg, im; assay type: functional, organism-based; design: dose 20 mg/kg
[42] = Ratio of AUC to MIC for Acinetobacter baumannii 1327 in pharmacokinetic-pharmacodynamic New Zealand rabbit meningitis model at 12 mg/kg, im; assay type: functional, organism-based; design: dose 12 mg/kg
Acinetobacter baumannii [43] = experiment: Antibacterial activity against Acinetobacter baumannii 1327 infected in New Zealand rabbit meningitis model assessed as reduction in bacterial count in CSF at 25 mg/kg, im measured after 4 hrs of last dose (RVb = 5.2); assay type: functional, organism-based; design: dose 25 mg/kg
Acinetobacter baumannii [44] = experiment: Antimicrobial activity against Acinetobacter baumannii infected in C57BL/6 mouse model assessed as reduction in bacterial count per gram of lung at total dose of 60 mg/kg/day, im administered as four divided doses after 72 hrs (RVb = 10.6+/-0.27); assay type: functional, organism-based

CC1(C)[C@H](C(=O)O)N2C(=O)C[C@H]2S1(=O)=O [SULBACTAM]
Ratio [1]: 1.78 | survival at 240 mg/kg/day (Acinetobacter baumannii [2]): 40% | Cmax [3]: 89.5 µg/mL | Cmax [4]: 75.3 µg/mL | AUC [5]: 57100 ng·h/mL | Activity (Acinetobacter baumannii [6]): Active | MBC (Acinetobacter baumannii [7]): 32 µg/mL (≈ 137 µM) | MIC (Acinetobacter baumannii [7]): 32 µg/mL (≈ 137 µM) | Activity (Acinetobacter baumannii [8]): 33.3% | Activity (Acinetobacter baumannii [9]): Active | Activity (Acinetobacter baumannii [10]): Active | MBC (Acinetobacter baumannii [11]): 32 µg/mL (≈ 137 µM) | MIC (Acinetobacter baumannii [11]): 32 µg/mL (≈ 137 µM) | T>MIC [12]: 1.29 h | AUC [13]: 87500 ng·h/mL | half-life [14]: 21 min | T>MIC [15]: 0.84 h | Activity (Acinetobacter baumannii [16]): Active | Activity (Acinetobacter baumannii [17]): Active | half-life [18]: 32.4 min | MBC (Acinetobacter baumannii [19]): 32 µg/mL (≈ 137 µM) | MIC (Acinetobacter baumannii [19]): 32 µg/mL (≈ 137 µM) | Ratio [20]: 2.8 | Ratio [21]: 2.35 | Ratio [22]: 2.73 | MBC (Acinetobacter baumannii [23]): 32 µg/mL (≈ 137 µM) | MIC (Acinetobacter baumannii [23]): 32 µg/mL (≈ 137 µM)

COLISTIN [listing 1 of 2 here]
AUC (Oryctolagus cuniculus [24]): 41720 ng·h/mL | AUC (Mus musculus [25]): 26420 ng·h/mL | Cmax (Oryctolagus cuniculus [26]): 9 µg/mL | t1/2 (Oryctolagus cuniculus [27]): 185 min | AUC (Homo sapiens): 23430 ng·h/mL | Cmax (Mus musculus [28]): 27.39 µg/mL | t1/2 (Mus musculus [29]): 32.4 min

COLISTIN [listing 2 of 2 here]
Ratio [30]: 18 | T>MIC [31]: 3.72 h | Activity (Acinetobacter baumannii [32]): 73.3% | Activity (Oryctolagus cuniculus [33]): 4% | Ratio [34]: 52.8 | Activity (Acinetobacter baumannii [6]): Active | MBC (Acinetobacter baumannii [7]): 2 µg/mL | MIC (Acinetobacter baumannii [7]): 0.5 µg/mL | Activity (Oryctolagus cuniculus [35]): 383 µL⁻¹ | Survival (Acinetobacter baumannii [36]): 40% | Activity (Acinetobacter baumannii [9]): Active | Activity (Acinetobacter baumannii [10]): Active | MBC (Acinetobacter baumannii [11]): 1 µg/mL | MIC (Acinetobacter baumannii [11]): 0.5 µg/mL | Activity (Acinetobacter baumannii [17]): Active | T>MIC [37]: 11.4 h | MIC (Acinetobacter baumannii [38]): 0.5 µg/mL | Activity (Acinetobacter baumannii [39]): 4.3 log10CFU/ml | Activity (Acinetobacter baumannii [40]): 5.2 log10CFU/ml | Ratio [41]: 54.8 | Ratio [42]: 83.4 | MBC (Acinetobacter baumannii [19]): 8 µg/mL | MIC (Acinetobacter baumannii [19]): 0.5 µg/mL | Activity (Acinetobacter baumannii [43]): 4.7 log10CFU/ml | Activity (Acinetobacter baumannii [44]): Active | MBC (Acinetobacter baumannii [23]): 2 µg/mL | MIC (Acinetobacter baumannii [23]): 0.5 µg/mL
